Laboratory results published in ChEMBL document CHEMBL5728723, “Pyrimidine compounds and pyrimido indole compounds and methods of use” (2021).

Experiments:
[1] = molecular target: Epidermal growth factor receptor (Homo sapiens, UniProt P00533); assay: (§1) Kinase Inhibition Assay: Table 9: Compounds 1 and 2, Section D., (see FIG. 4, bottom row, far right column) each inhibit VEGFR-2 and PDGFR-β for antiangiogenic effects and also inhibit human TS (hTS) for cytotoxic effects in single agents.12 The inhibitory potency of both these single agents against VEGFR-2, PDGFR-β, and hTS was better than or close to standards (Tables 9, 10).
[2] = molecular target: Platelet-derived growth factor receptor beta (Homo sapiens, UniProt P09619); assay: as §1
[3] = molecular target: Vascular endothelial growth factor receptor 1 (Homo sapiens, UniProt P17948); assay: as §1
[4] = molecular target: Vascular endothelial growth factor receptor 2 (Homo sapiens, UniProt P35968); assay: as §1
Vascular endothelial growth factor receptor 2, sequence (P35968 whole entry): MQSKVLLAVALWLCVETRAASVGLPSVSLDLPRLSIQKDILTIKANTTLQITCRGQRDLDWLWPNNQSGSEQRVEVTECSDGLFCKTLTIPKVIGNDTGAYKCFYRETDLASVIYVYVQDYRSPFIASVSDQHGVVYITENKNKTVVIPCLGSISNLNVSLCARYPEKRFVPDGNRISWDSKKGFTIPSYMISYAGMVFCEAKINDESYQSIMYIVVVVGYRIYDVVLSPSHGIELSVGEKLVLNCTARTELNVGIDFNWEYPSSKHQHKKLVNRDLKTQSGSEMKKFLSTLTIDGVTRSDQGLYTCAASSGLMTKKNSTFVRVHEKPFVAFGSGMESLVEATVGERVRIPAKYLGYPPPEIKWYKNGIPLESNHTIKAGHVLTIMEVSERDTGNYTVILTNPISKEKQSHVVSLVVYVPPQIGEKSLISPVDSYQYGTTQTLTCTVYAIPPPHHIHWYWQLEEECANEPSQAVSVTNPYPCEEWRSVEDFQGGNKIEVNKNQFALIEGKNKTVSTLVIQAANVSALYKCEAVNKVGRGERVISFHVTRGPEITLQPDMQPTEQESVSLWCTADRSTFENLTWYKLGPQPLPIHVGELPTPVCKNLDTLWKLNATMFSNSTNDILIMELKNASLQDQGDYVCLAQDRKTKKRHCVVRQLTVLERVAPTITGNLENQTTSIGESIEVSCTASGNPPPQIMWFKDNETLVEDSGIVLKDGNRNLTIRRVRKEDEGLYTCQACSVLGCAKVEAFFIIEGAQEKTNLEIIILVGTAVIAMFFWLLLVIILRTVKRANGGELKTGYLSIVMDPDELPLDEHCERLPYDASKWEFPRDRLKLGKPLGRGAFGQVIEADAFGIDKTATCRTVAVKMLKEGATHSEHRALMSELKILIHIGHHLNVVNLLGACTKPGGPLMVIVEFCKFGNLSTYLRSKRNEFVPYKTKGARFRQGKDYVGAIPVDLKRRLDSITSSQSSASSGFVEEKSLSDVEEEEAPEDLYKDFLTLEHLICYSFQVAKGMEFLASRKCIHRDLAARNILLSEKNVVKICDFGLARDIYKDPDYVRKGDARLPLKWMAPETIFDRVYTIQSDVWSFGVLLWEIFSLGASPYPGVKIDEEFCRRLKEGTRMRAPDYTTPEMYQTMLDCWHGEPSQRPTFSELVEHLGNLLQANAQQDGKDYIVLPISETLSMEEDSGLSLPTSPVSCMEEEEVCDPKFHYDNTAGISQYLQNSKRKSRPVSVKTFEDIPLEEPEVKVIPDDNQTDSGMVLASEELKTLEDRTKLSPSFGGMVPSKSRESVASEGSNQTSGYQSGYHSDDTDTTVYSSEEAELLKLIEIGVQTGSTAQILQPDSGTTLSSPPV

Platelet-derived growth factor receptor beta, sequence (P09619 whole entry): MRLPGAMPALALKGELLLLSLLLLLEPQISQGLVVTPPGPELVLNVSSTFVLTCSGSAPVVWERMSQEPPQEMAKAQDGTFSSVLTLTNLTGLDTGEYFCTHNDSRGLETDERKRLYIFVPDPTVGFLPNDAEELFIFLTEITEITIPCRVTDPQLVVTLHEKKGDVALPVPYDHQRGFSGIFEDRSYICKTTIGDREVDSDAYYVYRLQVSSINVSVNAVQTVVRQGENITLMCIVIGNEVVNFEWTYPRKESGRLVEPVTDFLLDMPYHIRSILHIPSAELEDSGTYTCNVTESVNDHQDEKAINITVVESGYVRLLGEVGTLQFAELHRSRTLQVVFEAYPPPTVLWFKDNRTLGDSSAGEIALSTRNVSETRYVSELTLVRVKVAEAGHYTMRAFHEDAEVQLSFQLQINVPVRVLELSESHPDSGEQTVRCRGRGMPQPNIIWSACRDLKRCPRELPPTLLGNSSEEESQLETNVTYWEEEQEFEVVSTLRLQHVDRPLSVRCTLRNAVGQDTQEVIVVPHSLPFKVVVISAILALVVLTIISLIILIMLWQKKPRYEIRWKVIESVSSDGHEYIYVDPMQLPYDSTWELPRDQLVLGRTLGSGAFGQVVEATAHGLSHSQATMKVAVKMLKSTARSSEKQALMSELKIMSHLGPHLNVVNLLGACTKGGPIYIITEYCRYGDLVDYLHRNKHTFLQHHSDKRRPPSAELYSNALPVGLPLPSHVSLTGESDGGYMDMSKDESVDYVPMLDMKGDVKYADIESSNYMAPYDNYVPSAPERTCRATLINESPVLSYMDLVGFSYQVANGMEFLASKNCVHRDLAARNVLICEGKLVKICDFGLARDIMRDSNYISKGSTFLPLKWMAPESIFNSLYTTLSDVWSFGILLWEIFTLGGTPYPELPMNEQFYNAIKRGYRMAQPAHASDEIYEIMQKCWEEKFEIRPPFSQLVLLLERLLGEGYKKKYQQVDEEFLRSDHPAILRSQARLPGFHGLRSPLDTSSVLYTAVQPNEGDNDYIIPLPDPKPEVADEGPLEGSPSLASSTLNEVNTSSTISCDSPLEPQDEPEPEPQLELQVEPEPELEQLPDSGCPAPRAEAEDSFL
Vascular endothelial growth factor receptor 1, sequence (P17948 whole entry): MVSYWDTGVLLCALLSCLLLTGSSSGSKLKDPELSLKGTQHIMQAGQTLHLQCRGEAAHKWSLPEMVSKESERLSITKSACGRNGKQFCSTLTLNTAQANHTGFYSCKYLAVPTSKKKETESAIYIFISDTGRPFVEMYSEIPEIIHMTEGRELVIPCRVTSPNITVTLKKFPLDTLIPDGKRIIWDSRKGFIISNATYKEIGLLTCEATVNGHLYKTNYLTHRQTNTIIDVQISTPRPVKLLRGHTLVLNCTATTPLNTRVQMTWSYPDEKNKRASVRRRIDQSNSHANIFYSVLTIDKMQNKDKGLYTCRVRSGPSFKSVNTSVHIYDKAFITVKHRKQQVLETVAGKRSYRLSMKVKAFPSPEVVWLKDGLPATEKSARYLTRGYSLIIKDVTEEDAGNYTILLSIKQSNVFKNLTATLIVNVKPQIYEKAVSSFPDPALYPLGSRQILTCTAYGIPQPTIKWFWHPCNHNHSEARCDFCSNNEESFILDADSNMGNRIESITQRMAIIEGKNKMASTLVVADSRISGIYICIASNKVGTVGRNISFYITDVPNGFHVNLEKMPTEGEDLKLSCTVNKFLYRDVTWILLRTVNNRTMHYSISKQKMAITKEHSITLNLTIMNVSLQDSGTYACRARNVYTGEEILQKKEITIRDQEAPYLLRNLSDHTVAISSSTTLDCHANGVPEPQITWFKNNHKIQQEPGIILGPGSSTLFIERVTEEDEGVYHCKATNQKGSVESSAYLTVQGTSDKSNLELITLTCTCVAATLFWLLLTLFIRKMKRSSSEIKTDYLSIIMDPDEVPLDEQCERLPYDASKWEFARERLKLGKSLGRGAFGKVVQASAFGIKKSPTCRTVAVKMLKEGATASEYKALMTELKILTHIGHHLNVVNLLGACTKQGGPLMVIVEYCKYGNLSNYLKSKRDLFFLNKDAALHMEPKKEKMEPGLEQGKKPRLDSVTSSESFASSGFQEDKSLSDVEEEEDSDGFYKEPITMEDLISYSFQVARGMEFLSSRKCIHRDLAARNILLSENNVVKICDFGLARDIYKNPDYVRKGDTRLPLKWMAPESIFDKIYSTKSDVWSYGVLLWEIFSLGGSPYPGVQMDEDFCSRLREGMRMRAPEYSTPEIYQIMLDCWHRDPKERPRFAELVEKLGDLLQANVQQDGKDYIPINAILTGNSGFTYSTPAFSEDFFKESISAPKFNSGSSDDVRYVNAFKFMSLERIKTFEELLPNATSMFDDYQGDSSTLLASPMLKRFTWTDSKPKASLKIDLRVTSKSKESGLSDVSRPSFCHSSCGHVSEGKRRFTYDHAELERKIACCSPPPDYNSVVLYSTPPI
Epidermal growth factor receptor, sequence (P00533 whole entry): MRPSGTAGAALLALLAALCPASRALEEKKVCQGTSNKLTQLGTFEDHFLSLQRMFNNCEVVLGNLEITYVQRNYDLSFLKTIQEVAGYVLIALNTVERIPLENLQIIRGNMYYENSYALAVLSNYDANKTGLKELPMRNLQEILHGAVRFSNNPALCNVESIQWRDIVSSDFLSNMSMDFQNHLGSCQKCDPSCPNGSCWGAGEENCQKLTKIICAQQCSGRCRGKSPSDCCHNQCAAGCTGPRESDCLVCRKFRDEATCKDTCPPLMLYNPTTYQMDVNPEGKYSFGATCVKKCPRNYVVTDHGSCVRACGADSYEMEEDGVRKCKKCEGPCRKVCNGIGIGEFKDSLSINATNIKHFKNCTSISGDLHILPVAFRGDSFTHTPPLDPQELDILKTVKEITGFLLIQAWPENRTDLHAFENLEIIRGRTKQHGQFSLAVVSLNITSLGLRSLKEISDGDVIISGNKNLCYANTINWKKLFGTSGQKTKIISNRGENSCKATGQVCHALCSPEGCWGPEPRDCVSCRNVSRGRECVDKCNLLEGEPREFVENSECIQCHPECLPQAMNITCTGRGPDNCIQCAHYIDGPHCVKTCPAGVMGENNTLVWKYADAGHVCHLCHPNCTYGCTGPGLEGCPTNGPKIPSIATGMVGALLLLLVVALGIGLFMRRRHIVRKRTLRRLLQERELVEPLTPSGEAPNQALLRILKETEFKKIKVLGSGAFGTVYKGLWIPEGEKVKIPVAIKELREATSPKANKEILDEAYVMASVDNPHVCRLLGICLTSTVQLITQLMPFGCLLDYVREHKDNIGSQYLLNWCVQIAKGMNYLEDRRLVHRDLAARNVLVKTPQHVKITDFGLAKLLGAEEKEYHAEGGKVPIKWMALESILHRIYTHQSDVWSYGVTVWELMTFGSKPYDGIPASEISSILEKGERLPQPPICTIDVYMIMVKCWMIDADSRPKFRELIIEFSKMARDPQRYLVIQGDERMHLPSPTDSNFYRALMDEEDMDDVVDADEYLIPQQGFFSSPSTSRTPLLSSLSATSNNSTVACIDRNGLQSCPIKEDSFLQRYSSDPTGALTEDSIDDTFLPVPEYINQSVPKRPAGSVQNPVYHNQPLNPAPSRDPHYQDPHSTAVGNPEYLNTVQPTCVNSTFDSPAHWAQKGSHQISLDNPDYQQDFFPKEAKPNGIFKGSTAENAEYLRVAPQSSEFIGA

Compound | IC50 [1] | IC50 [2] | IC50 [3] | IC50 [4]
COc1cccc(Sc2sc3nc(N)nc(N)c3c2C)c1 | 10.4 µM | 40.3 µM | 160 µM | 56.3 µM
COc1ccc(Sc2sc3nc(N)nc(N)c3c2C)cc1OC | – | 2.8 µM | 118 µM | 22.6 µM
